Measured values: patent US12404239B2, “Modulators of BCL6 as ligand directed degraders” (Celgene Corporation, priority 2022, dated 2025)

Target: T1, BCL6 (Homo sapiens, UniProt P41182)
T1 construct: HiBiT-tag knocked into endogenous BCL6 locus using CRISPR; endogenous in cells; host or cells: DHL-4_BCL6_HiBiT cells (CRISPR knock-in)
Test: BCL6_HiBiT degradation assay (2 h)
Type: cell-based
Conditions: DHL-4_BCL6_HiBiT cells; for Percent BCL6 remaining at maximal degradation (Ycon): read-out: YCon (% remaining maximal effect)
Method in brief: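 DHL-4 cells carrying CRISPR HiBiT knock-in at endogenous BCL6, treated 2 h at 37 °C with 10-point 3-fold dilutions from 1-10 μM. BCL6 level read by Nano-Glo HiBiT lytic luminescence normalized to DMSO; four-parameter fit gives degradation EC50 and Yconstant (% remaining at maximal effect).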

Row | SMILES | Percent BCL6 remaining at maximal degradation (Ycon) [%] | YCon (% remaining maximal effect)
1 | C[C@@H]1CN(c2ncc(Cl)c(Nc3ccc4c(c3)CC(=O)N4CCN3CCOCC3)n2)CC[C@H]1Nc1ccc2c([C@H]3CCC(=O)NC3=O)nn(C)c2c1 (single isomer, unassigned) [Example 102] | < 20 | –
2 | CN1C(=O)Cc2cc(Nc3nc(N4CC[C@@H](Nc5ccc6c(C7CCC(=O)NC7=O)nn(C)c6c5)[C@@H](C(F)(F)F)C4)ncc3Cl)ccc21 (single isomer, unassigned) [Example 148] | > 60 | –
3 | C[C@@H]1CN(c2ncc(Cl)c(Nc3ccc4c(c3)CC(=O)N4C)n2)CC[C@H]1Nc1ccc2c(N3CCC(=O)NC3=O)nn(C)c2c1 [Example 141, 1-(6-(((3R,4R)-1-(5-chloro-4-((1-methyl-2-oxoindolin-5-yl)amino)pyrimidin-2-yl)-3-methylpiperidin-4-yl)amino)-1-methyl-1H-indazol-3-yl)dihydropyrimidine-2,4(1H,3H)-dione] | < 20 | –
4 | CO[C@@H]1CN(c2ncc(Cl)c(Nc3ccc4c(c3)CC(=O)N4C)n2)CC[C@H]1Nc1ccc2c(C3(C)CCC(=O)NC3=O)nn(C)c2c1 (stereo partly drawn) [Example 154, 3-(6-(((3R,4R)-1-(5-chloro-4-((1-methyl-2-oxoindolin-5-yl)amino)pyrimidin-2-yl)-3-methoxypiperidin-4-yl)amino)-1-methyl-1H-indazol-3-yl)-3-methylpiperidine-2,6-dione] | 20 to 60 | –
5 | CN1C(=O)Cc2cc(Nc3nc(N4CCC(Nc5ccc6c(N7CCC(=O)NC7=O)nn(C)c6c5)CC4)ncc3Cl)ccc21 [Example 135, 1-(6-((1-(5-chloro-4-((1-methyl-2-oxoindolin-5-yl)amino)pyrimidin-2-yl)piperidin-4-yl)amino)-1-methyl-1H-indazol-3-yl)dihydropyrimidine-2,4(1H,3H)-dione] | > 60 | –
6 | Cn1nc(C2CCC(=O)NC2=O)c2ccc(NC3CCN(c4ncc(Cl)c(Nc5ccc6c(c5)CC(=O)N6CCO)n4)CC3)cc21 (stereo not drawn) [Example 41, 3-[6-[[1-[5-chloro-4-[[1-(2-hydroxyethyl)-2-oxo-indolin-5-yl]amino]pyrimidin-2-yl]-4-piperidyl]amino]-1-methyl-indazol-3-yl]piperidine-2,6-dione] | 20 to 60 | –
7 | C[C@@H]1CN(c2ncc(Cl)c(Nc3ccc4c(c3)CC(=O)N4)n2)CC[C@H]1Nc1ccc2c(C3CCC(=O)NC3=O)nn(C)c2c1 (stereo partly drawn) [Example 114, 3-(6-(((3R,4R)-1-(5-chloro-4-((2-oxoindolin-5-yl)amino)pyrimidin-2-yl)-3-methylpiperidin-4-yl)amino)-1-methyl-1H-indazol-3-yl)piperidine-2,6-dione] | < 20 | –
8 | CN(c1ccc2c(C3CCC(=O)NC3=O)nn(C)c2c1)C1CCN(c2ncc(Cl)c(Nc3ccc4c(c3)N(CCC(C)(C)O)C(=O)C4)n2)CC1 (stereo not drawn) [Example 10, 3-(6-((1-(5-chloro-4-((1-(3-hydroxy-3-methylbutyl)-2-oxoindolin-6-yl)amino)pyrimidin-2-yl)piperidin-4-yl)(methyl)amino)-1-methyl-1H-indazol-3-yl)piperidine-2,6-dione] | 20 to 60 | –
9 | C[C@@H]1CN(c2ncc(Cl)c(Nc3ccc4c(c3)CC(=O)N4CC(C)(C)F)n2)CC[C@H]1Nc1ccc2c(C3CCC(=O)NC3=O)nn(C)c2c1 (stereo partly drawn) [Example 121, 3-(6-(((3R,4R)-1-(5-chloro-4-((1-(2-fluoro-2-methylpropyl)-2-oxoindolin-5-yl)amino)pyrimidin-2-yl)-3-methylpiperidin-4-yl)amino)-1-methyl-1H-indazol-3-yl)piperidine-2,6-dione] | < 20 | –
10 | CN1C(=O)Cc2cc(Nc3nc(N4CC[C@H](Nc5ccc6c(C7CCC(=O)NC7=O)nn(C)c6c5)[C@H](C(F)(F)F)C4)ncc3Cl)ccc21 (relative stereo) [Example 147, rel-3-(6-(((3R,4S)-1-(5-chloro-4-((1-methyl-2-oxoindolin-5-yl)amino)pyrimidin-2-yl)-3-(trifluoromethyl)piperidin-4-yl)amino)-1-methyl-1H-indazol-3-yl)piperidine-2,6-dione] | > 60 | –
11 | C[C@@H]1CN(c2ncc(Cl)c(Nc3ccc4c(c3)CC(=O)N4CCN3CCOCC3)n2)CC[C@H]1Nc1ccc2c(C3CCC(=O)NC3=O)nn(C)c2c1 (stereo partly drawn) [Example 101, 3-(6-(((3R,4R)-1-(5-chloro-4-((1-(2-morpholinoethyl)-2-oxoindolin-5-yl)amino)pyrimidin-2-yl)-3-methylpiperidin-4-yl)amino)-1-methyl-1H-indazol-3-yl)piperidine-2,6-dione] | < 20 | –

The remaining lines, values ahead:

Row | Percent BCL6 remaining at maximal degradation (Ycon) [%] | YCon (% remaining maximal effect) | SMILES
12 | < 20 | – | C[C@@H]1CN(c2ncc(Cl)c(Nc3ccc4c(c3)N(C)C(=O)C4)n2)CC[C@H]1Nc1ccc2c(C3CCC(=O)NC3=O)nn(C)c2c1 (stereo partly drawn) [Example 61, 3-(6-(((3R,4R)-1-(5-chloro-4-((1-methyl-2-oxoindolin-6-yl)amino)pyrimidin-2-yl)-3-methylpiperidin-4-yl)amino)-1-methyl-1H-indazol-3-yl)piperidine-2,6-dione]
13 | > 60 | – | C[C@@H]1CN(c2ncc(Cl)c(Nc3ccc4c(c3)CC(=O)N4C)n2)C[C@H](C)N1c1ccc2c(C3CCC(=O)NC3=O)nn(C)c2c1 (stereo partly drawn) [Example 26, 3-(6-((2S,6R)-4-(5-chloro-4-((1-methyl-2-oxoindolin-5-yl)amino)pyrimidin-2-yl)-2,6-dimethylpiperazin-1-yl)-1-methyl-1H-indazol-3-yl)piperidine-2,6-dione]
14 | < 20 | – | CNCCN1C(=O)Cc2cc(Nc3nc(N4CC[C@@H](Nc5ccc6c(C7CCC(=O)NC7=O)nn(C)c6c5)[C@H](C)C4)ncc3Cl)ccc21 (stereo partly drawn) [Example 104, 3-(6-(((3R,4R)-1-(5-chloro-4-((1-(2-(methylamino)ethyl)-2-oxoindolin-5-yl)amino)pyrimidin-2-yl)-3-methylpiperidin-4-yl)amino)-1-methyl-1H-indazol-3-yl)piperidine-2,6-dione]
15 | 20 to 60 | – | CN1C(=O)Cc2cc(Nc3nc(N4CCC(Nc5ccc6c(C7CCC(=O)NC7=O)nn(C)c6c5)CC45CCC5)ncc3Cl)ccc21 (stereo not drawn) [Example 1, 3-(6-((5-(5-chloro-4-((1-methyl-2-oxoindolin-5-yl)amino)pyrimidin-2-yl)-5-azaspiro[3.5]nonan-8-yl)amino)-1-methyl-1H-indazol-3-yl)piperidine-2,6-dione]
16 | > 60 | – | CN1C(=O)Cc2cc(Nc3nc(N4CC[C@@H](Nc5ccc6c(C7CCC(=O)NC7=O)nn(C)c6c5)[C@@H](F)C4)ncc3Cl)ccc21 (stereo partly drawn) [Example 44, 3-(6-(((3S,4R)-1-(5-chloro-4-((1-methyl-2-oxoindolin-5-yl)amino)pyrimidin-2-yl)-3-fluoropiperidin-4-yl)amino)-1-methyl-1H-indazol-3-yl)piperidine-2,6-dione]
17 | < 20 | – | CNCCN1C(=O)Cc2cc(Nc3nc(N4CC[C@@H](Nc5ccc6c([C@H]7CCC(=O)NC7=O)nn(C)c6c5)[C@H](C)C4)ncc3Cl)ccc21 (single isomer, unassigned) [Example 105]
18 | > 60 | – | CC1CCN(c2ncc(Cl)c(Nc3ccc4c(c3)CC(=O)N4C)n2)CCC1Nc1ccc2c(C3CCC(=O)NC3=O)nn(C)c2c1 (stereo not drawn) [Example 47, 3-(6-((1-(5-chloro-4-((1-methyl-2-oxoindolin-5-yl)amino)pyrimidin-2-yl)-5-methylazepan-4-yl)amino)-1-methyl-1H-indazol-3-yl)piperidine-2,6-dione]
19 | – | ^^ (20-60%) | CN1C(=O)Cc2cc(Nc3nc(N4CCC(Nc5ccc6c(C7CCC(=O)NC7=O)nn(C)c6c5)CC4)ncc3Cl)ccc21 (single isomer, unassigned) [Example 53]
20 | > 60 | – | CN1C(=O)Cc2cc(Nc3nc(N4CCN(c5ccc6c(C7CCC(=O)NC7=O)nn(C)c6c5)CC4)ncc3Cl)ccc21 (stereo not drawn) [Example 35, 3-[6-[4-[5-chloro-4-[(1-methyl-2-oxo-indolin-5-yl)amino]pyrimidin-2-yl]piperazin-1-yl]-1-methyl-indazol-3-yl]piperidine-2,6-dione]
21 | – | ^^ (20-60%) | CC1CN(c2ncc(Cl)c(Nc3ccc4c(c3)CC(=O)N4C)n2)CCCC1Nc1ccc2c(C3CCC(=O)NC3=O)nn(C)c2c1 (single isomer, unassigned) [Example 51, 3-(6-((1-(5-chloro-4-((1-methyl-2-oxoindolin-5-yl)amino)pyrimidin-2-yl)-3-methylazepan-4-yl)amino)-1-methyl-1H-indazol-3-yl)piperidine-2,6-dione]
22 | > 60 | – | CN1C(=O)Cc2cc(Nc3nc(N(C)C4CCN(c5ccc6c(C7CCC(=O)NC7=O)nn(C)c6c5)CC4)ncc3Cl)ccc21 (stereo not drawn) [Example 6, 3-(6-(4-((5-Chloro-4-((1-methyl-2-oxoindolin-5-yl)amino)pyrimidin-2-yl)(methyl)amino)piperidin-1-yl)-1-methyl-1H-indazol-3-yl)piperidine-2,6-dione]
23 | < 20 | – | CN1C(=O)Cc2cc(Nc3nc(N(C)C4CCN(c5ccc6c(C7CCC(=O)NC7=O)nn(C)c6c5)C5(CCC5)C4)ncc3Cl)ccc21 (stereo not drawn) [Example 2, 3-(6-(8-((5-chloro-4-((1-methyl-2-oxoindolin-5-yl)amino)pyrimidin-2-yl)(methyl)amino)-5-azaspiro[3.5]nonan-5-yl)-1-methyl-1H-indazol-3-yl)piperidine-2,6-dione]
24 | > 60 | – | CN1C(=O)Cc2cc(Nc3nc(N4CC[C@@H](Nc5ccc6c(C7CCC(=O)NC7=O)nn(C)c6c5)[C@@H](CO)C4)ncc3Cl)ccc21 (stereo partly drawn) [Example 57, 3-[6-[[(3S,4R)-1-[5-Chloro-4-[(1-methyl-2-oxo-indolin-5-yl)amino]pyrimidin-2-yl]-3-(hydroxymethyl)-4-piperidyl]amino]-1-methyl-indazol-3-yl]piperidine-2,6-dione]
